{"source": "patent US10227344B2", "about": "“CK2 inhibitors, compositions and methods thereof” (Polaris Pharmaceuticals, Inc., priority 2016, dated 2019)", "assay_type_in_all_cases": "cell-based", "key": {"[1]": {"system": "BxPC3", "experiment": "Cancer cell panel, cell viability (resazurin): Pancreatic, BxPC3", "details": "72 hours, labelled drug combined with Example 3"}, "[2]": {"system": "H1975", "experiment": "Cancer cell panel, cell viability (resazurin): NSCLC, H1975", "details": "72 hours, labelled drug combined with Example 3", "description": "(§1) Cells were plated in 96-well plates and treated for 72 hours with a serially diluted CK2 inhibitor or anti-cancer drug or their combination. The suspension cell lines were treated right after plating, while the adherent cells were allowed to attach overnight prior to the start of the treatment.\n(§2) Cell viability was determined by adding resazurin to cell cultures and measuring fluorescence with a plate reader. Relative cell viability was calculated by dividing the cell viability signal from a test sample by that of a non-treated control. […] Bliss Independence and Highest Single Agent models were used to determine if there is synergy, additivity or antagonism between the CK2 inhibitor and an anti-cancer drug."}, "[3]": {"system": "Caov-3", "experiment": "Cancer cell panel, cell viability (resazurin): Ovarian, Caov-3", "details": "Caov-3 (Ovarian), 72 hours; labelled drug combined with Example 3"}, "[4]": {"system": "MDA-MB-157", "experiment": "Cancer cell panel, cell viability (resazurin): Breast, MDA-MB-157", "details": "MDA-MB-157 (Breast), 72 hours; labelled drug combined with Example 3"}, "[5]": {"system": "Caki-1", "experiment": "Cancer cell panel, cell viability (resazurin): Renal, Caki-1", "details": "Caki-1 (Renal), 72 hours; labelled drug combined with Example 3"}, "[6]": {"system": "SKOV-3", "experiment": "Cancer cell panel, cell viability (resazurin): Ovarian, SKOV-3", "details": "SKOV-3 (Ovarian), 72 hours; labelled drug combined with Example 3"}, "[7]": {"system": "U87MG", "experiment": "Cancer cell panel, cell viability (resazurin): Glioblastoma, U87MG", "details": "72 hours, labelled drug combined with Example 3"}, "[8]": {"system": "SK-MEL-24", "experiment": "Cancer cell panel, cell viability (resazurin): Melanoma, SK-MEL-24", "details": "SK-MEL-24 (Melanoma), 72 hours; labelled drug combined with Example 3"}, "[9]": {"system": "LoVo", "experiment": "Cancer cell panel, cell viability (resazurin): Colon, LoVo", "details": "72 hours, labelled drug combined with Example 3", "description": "as §1, §2"}, "[10]": {"system": "DLD-1", "experiment": "Cancer cell panel, cell viability (resazurin): Colon, DLD-1", "details": "DLD-1 (Colon), 72 hours; labelled drug combined with Example 3"}, "[11]": {"system": "H23", "experiment": "Cancer cell panel, cell viability (resazurin): NSCLC, H23", "details": "72 hours, labelled drug combined with Example 3", "description": "as §1, §2"}, "[12]": {"system": "Daudi", "experiment": "Cancer cell panel, cell viability (resazurin): Burkitt's Lymphoma, Daudi", "details": "72 hours, labelled drug combined with Example 3"}, "[13]": {"system": "Caki-2", "experiment": "Cancer cell panel, cell viability (resazurin): Renal, Caki-2", "details": "Caki-2 (Renal), 72 hours; labelled drug combined with Example 3", "description": "as §1, §2"}, "[14]": {"system": "WM-115", "experiment": "Cancer cell panel, cell viability (resazurin): Melanoma, WM-115", "details": "WM-115 (Melanoma), 72 hours; labelled drug combined with Example 3"}, "[15]": {"system": "ACHN", "experiment": "Cancer cell panel, cell viability (resazurin): Renal, ACHN", "details": "72 hours, labelled drug combined with Example 3"}, "[16]": {"system": "MOLT4", "experiment": "Cancer cell panel, cell viability (resazurin): Leukemia, MOLT4", "details": "72 hours, labelled drug combined with Example 3", "description": "as §1, §2"}, "[17]": {"system": "LnCap", "experiment": "Cancer cell panel, cell viability (resazurin): Prostate, LnCap", "details": "72 hours, labelled drug combined with Example 3"}, "[18]": {"system": "Colo205", "experiment": "Cancer cell panel, cell viability (resazurin): Colon, Colo205", "details": "72 hours, labelled drug combined with Example 3"}, "[19]": {"system": "PC3", "experiment": "Cancer cell panel, cell viability (resazurin): Prostate, PC3", "details": "72 hours, labelled drug combined with Example 3", "description": "as §1, §2"}, "[20]": {"system": "MCF7", "experiment": "Cancer cell panel, cell viability (resazurin): Breast, MCF7", "details": "72 hours, labelled drug combined with Example 3", "description": "as §1, §2"}, "[21]": {"system": "MDA-MB-231", "experiment": "Cancer cell panel, cell viability (resazurin): Breast, MDA-MB-231", "details": "MDA-MB-231 (Breast), 72 hours; labelled drug combined with Example 3"}, "[22]": {"system": "Panc-1", "experiment": "Cancer cell panel, cell viability (resazurin): Pancreatic, Panc-1", "details": "Panc-1 (Pancreatic), 72 hours; labelled drug combined with Example 3"}, "[23]": {"system": "H1299", "experiment": "Cancer cell panel, cell viability (resazurin): NSCLC, H1299", "details": "72 hours, labelled drug combined with Example 3"}}, "data": [{"smiles": "Nc1ccn([C@@H]2O[C@H](CO)[C@@H](O)C2(F)F)c(=O)n1", "note": "[Gemcitabine, gemcitabine]", "values": [{"measurement": "synergy, additivity or antagonism of the combination of Example 3 with the anti-cancer drug", "setting": "[1]", "result": "+ + + (Synergy relative to each agent alone (CI = 0.4-0.74 by Bliss Independence Model))"}, {"measurement": "synergy, additivity or antagonism of the combination of Example 3 with the anti-cancer drug", "setting": "[2]", "result": "+ (Additive relative to each agent alone (CI = 0.9-1 by Bliss Independence Model and <0.9 by Highest Single Agent Model))"}, {"measurement": "synergy, additivity or antagonism of the combination of Example 3 with the anti-cancer drug", "setting": "[3]", "result": "+ (Additive relative to each agent alone (CI = 0.9-1 by Bliss Independence Model and <0.9 by Highest Single Agent Model))"}, {"measurement": "synergy, additivity or antagonism of the combination of Example 3 with the anti-cancer drug", "setting": "[4]", "result": "+ + (Slight synergy relative to each agent alone (CI = 0.75-0.9 by Bliss Independence Model))"}, {"measurement": "synergy, additivity or antagonism of the combination of Example 3 with the anti-cancer drug", "setting": "[5]", "result": "+ (Additive relative to each agent alone (CI = 0.9-1 by Bliss Independence Model and <0.9 by Highest Single Agent Model))"}, {"measurement": "synergy, additivity or antagonism of the combination of Example 3 with the anti-cancer drug", "setting": "[6]", "result": "+ + (Slight synergy relative to each agent alone (CI = 0.75-0.9 by Bliss Independence Model))"}, {"measurement": "synergy, additivity or antagonism of the combination of Example 3 with the anti-cancer drug", "setting": "[7]", "result": "+ (Additive relative to each agent alone (CI = 0.9-1 by Bliss Independence Model and <0.9 by Highest Single Agent Model))"}, {"measurement": "synergy, additivity or antagonism of the combination of Example 3 with the anti-cancer drug", "setting": "[8]", "result": "+ (Additive relative to each agent alone (CI = 0.9-1 by Bliss Independence Model and <0.9 by Highest Single Agent Model))"}, {"measurement": "synergy, additivity or antagonism of the combination of Example 3 with the anti-cancer drug", "setting": "[9]", "result": "+ (Additive relative to each agent alone (CI = 0.9-1 by Bliss Independence Model and <0.9 by Highest Single Agent Model))"}, {"measurement": "synergy, additivity or antagonism of the combination of Example 3 with the anti-cancer drug", "setting": "[10]", "result": "+ (Additive relative to each agent alone (CI = 0.9-1 by Bliss Independence Model and <0.9 by Highest Single Agent Model))"}, {"measurement": "synergy, additivity or antagonism of the combination of Example 3 with the anti-cancer drug", "setting": "[11]", "result": "+ (Additive relative to each agent alone (CI = 0.9-1 by Bliss Independence Model and <0.9 by Highest Single Agent Model))"}, {"measurement": "synergy, additivity or antagonism of the combination of Example 3 with the anti-cancer drug", "setting": "[12]", "result": "+ + (Slight synergy relative to each agent alone (CI = 0.75-0.9 by Bliss Independence Model))"}, {"measurement": "synergy, additivity or antagonism of the combination of Example 3 with the anti-cancer drug", "setting": "[13]", "result": "+ (Additive relative to each agent alone (CI = 0.9-1 by Bliss Independence Model and <0.9 by Highest Single Agent Model))"}, {"measurement": "synergy, additivity or antagonism of the combination of Example 3 with the anti-cancer drug", "setting": "[14]", "result": "+ (Additive relative to each agent alone (CI = 0.9-1 by Bliss Independence Model and <0.9 by Highest Single Agent Model))"}, {"measurement": "synergy, additivity or antagonism of the combination of Example 3 with the anti-cancer drug", "setting": "[15]", "result": "+ (Additive relative to each agent alone (CI = 0.9-1 by Bliss Independence Model and <0.9 by Highest Single Agent Model))"}, {"measurement": "synergy, additivity or antagonism of the combination of Example 3 with the anti-cancer drug", "setting": "[16]", "result": "+ + + (Synergy relative to each agent alone (CI = 0.4-0.74 by Bliss Independence Model))"}, {"measurement": "synergy, additivity or antagonism of the combination of Example 3 with the anti-cancer drug", "setting": "[17]", "result": "+ (Additive relative to each agent alone (CI = 0.9-1 by Bliss Independence Model and <0.9 by Highest Single Agent Model))"}, {"measurement": "synergy, additivity or antagonism of the combination of Example 3 with the anti-cancer drug", "setting": "[18]", "result": "+ (Additive relative to each agent alone (CI = 0.9-1 by Bliss Independence Model and <0.9 by Highest Single Agent Model))"}, {"measurement": "synergy, additivity or antagonism of the combination of Example 3 with the anti-cancer drug", "setting": "[19]", "result": "+ (Additive relative to each agent alone (CI = 0.9-1 by Bliss Independence Model and <0.9 by Highest Single Agent Model))"}, {"measurement": "synergy, additivity or antagonism of the combination of Example 3 with the anti-cancer drug", "setting": "[20]", "result": "+ (Additive relative to each agent alone (CI = 0.9-1 by Bliss Independence Model and <0.9 by Highest Single Agent Model))"}, {"measurement": "synergy, additivity or antagonism of the combination of Example 3 with the anti-cancer drug", "setting": "[21]", "result": "+ + (Slight synergy relative to each agent alone (CI = 0.75-0.9 by Bliss Independence Model))"}, {"measurement": "synergy, additivity or antagonism of the combination of Example 3 with the anti-cancer drug", "setting": "[22]", "result": "+ (Additive relative to each agent alone (CI = 0.9-1 by Bliss Independence Model and <0.9 by Highest Single Agent Model))"}, {"measurement": "synergy, additivity or antagonism of the combination of Example 3 with the anti-cancer drug", "setting": "[23]", "result": "+ (Additive relative to each agent alone (CI = 0.9-1 by Bliss Independence Model and <0.9 by Highest Single Agent Model))"}]}]}
